In patent US20220154282A1, “DETECTION MEANS, COMPOSITIONS AND METHODS FOR MODULATING SYNOVIAL SARCOMA CELLS” (The Broad Institute, Inc., priority 2019, published 2022):

Test system: Aska and SYO1 SyS cell lines
Experiment: SS18-SSX knockdown (shSSX vs shCt) with scRNA-Seq readout
Format: cell-based, human
From the text: To decouple the intrinsic and extrinsic factor determining the malignant cell states in SyS Applicants first tested whether the core oncogenic and other programs were co-regulated by the genetic fusion driving SyS. Applicants turned to explore the potential regulators of these cellular programs, starting from the genetic driver. To this end, they depleted SS18-SSX in two SyS cell lines (SYO1 and Aska) using shRNA and profiled 12,263 cells with scRNA-Seq. The fusion KD led to massive and highly consistent transcriptional alternation in both cell lines (FIG. 7A, Tables 8, 9). […] Leveraging the single-cell readout Applicants confirmed that the KD impact on the core oncogenic and differentiation programs was decoupled from, and not secondary to, the repression of cellular proliferation (FIG. 7B), such that the impact on the core oncogenic and differentiation programs was observed even when controlling for the cycling status of the cells, and when considering only cycling or non-cycling cells (P<1.54*10^−13, t-test, FIG. 5B, METHODS). Thus, the fusion's impact on cell cycle may be secondary or downstream to its impact on the core oncogenic program. In addition, the fusion KD led to an induction of antigen presentation and cell autonomous immune responses, such as TNF and IFN signaling (P<1*10^−30, mixed-effects, FIG. 8A).
The SyS cell lines Aska and SYO1 were cultured using standard protocols in DMEM medium (Gibco) supplemented with 10-20% fetal bovine serum, 1% Glutamax (Gibco), 1% Sodium Pyruvate (Gibco) and 1% Penicillin-Streptomycin (Gibco) and grown in a humidified incubator at 37° C. with 5% CO2. Cells expressing a pLKO.1 vector with a scrambled shRNA hairpin control (5′-[…] CTTAGG-3′) (SEQ ID NO: 5) or a shSSX hairpin targeting SSX of the SS18-SSX fusion (5′-[…]-3′) (SEQ ID NO: 6) were prepared by lentiviral infection. In brief, lentivirus was prepared by transfection of HEK293T cells with gene delivery vector and the packaging vectors pspax2 and pMD2.G, filtration of media followed by ultracentrifugation, and then resuspension of viral pellet in PBS. Aska and SYO1 cells were infected with lentivirus for 48 hours and then underwent 5 days of selection with puromycin (2 μg/mL) prior to collection for single cell RNA-seq analysis.
The fusion program consists of genes that were differentially expressed in the Aska or SYO1 cells with the SS18-SSX shRNA (shSSX) compared to those with control shRNA (shCt) after 3 or 7 days post-infection. Gene that were previously reported (35, 36) to be bound by the SS18-SSX oncoprotein in at least two SyS cell lines were defined as direct SS18-SSX targets, and were used to stratify the SS18-SSX program to direct and indirect targets.

[1] = SSX shRNA (shSSX) vs control shRNA (shCt), ASKA and SYO1 cells, scRNA-Seq

shSSX: shSSX hairpin targeting SSX of the SS18-SSX fusion (5′-CAGTCACTGACAGTTAATAAA-3′), pLKO.1 lentiviral vector
mesenchymal differentiation program [1]: induced
overall expression of the cell cycle program [1]: repressed
overall expression of the core oncogenic program [1]: repressed
immune responses (topmost differentially expressed pathways) (shSSX vs shCt, SyS cells stratified by cycling status): inducing multiple immune responses
